Results from PubChem BioAssay (NCI).
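Assay format: 96-well plates, 48-hour exposure. At the GI50, growth is halved. The concentration for full growth arrest is given as TGI.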

How the values were obtained:
Test in all cases: NCI-60 cell line screen, 48 h
[1] = tested on: OVCAR-8 ovarian
[2] = tested on: M14 melanoma
[3] = tested on: RPMI-8226 leukemia
[4] = tested on: A549 NSCLC
[5] = tested on: RXF 393 renal
[6] = tested on: CAKI-1 renal
[7] = tested on: HS 578T breast
[8] = tested on: SNB-19 CNS
[9] = tested on: SR leukemia
[10] = tested on: HL-60(TB) leukemia

| SMILES | TGI [1] | TGI [2] | TGI [3] | TGI [4] | TGI [5] | TGI [6] | GI50 [1] | TGI [7] | GI50 [2] | GI50 [3] | GI50 [4] | GI50 [8] | TGI [8] | GI50 [6] | GI50 [7] | GI50 [9] | TGI [9] | GI50 [5] | GI50 [10] | TGI [10] |
| --- | --- | --- | --- | --- | --- | --- | --- | --- | --- | --- | --- | --- | --- | --- | --- | --- | --- | --- | --- | --- |
| NC(CCCC(N)P(=O)(O)O)P(=O)(O)O (stereo not given) | > 100 µM | > 100 µM | > 100 µM | > 100 µM | > 100 µM | > 100 µM | – | – | – | – | – | – | – | – | – | – | – | – | – | – |
| COc1ccc2c(c1)C(=O)CCc1cc(OC)c(OC)c(OC)c1-2 | – | > 100 µM | > 100 µM | > 100 µM | – | > 100 µM | < 0.01 µM | 0.0576 µM | < 0.01 µM | < 0.01 µM | < 0.01 µM | < 0.01 µM | > 100 µM | < 0.01 µM | – | – | – | – | – | – |
| CC(C)CNc1nc(-c2ccccc2Cl)nc2ccccc12 | 38.9 µM | 35.1 µM | 32.7 µM | 33.5 µM | 31.2 µM | 32.7 µM | 17.2 µM | 37.3 µM | 19.5 µM | 12.6 µM | 14.1 µM | 24.8 µM | 58.5 µM | 15 µM | 18 µM | 19.7 µM | 44.9 µM | 15.1 µM | – | – |
| CCC[CH2][Sn]([CH2]CCC)([O]C(=O)CN)[O]C(=O)CN | > 100 µM | > 100 µM | 54.5 µM | > 100 µM | 44.3 µM | 51.1 µM | 69 µM | – | 36.7 µM | 15.3 µM | > 100 µM | 45.5 µM | > 100 µM | 14.7 µM | – | 22.9 µM | 95.6 µM | 16.2 µM | 18.5 µM | 65 µM |
| CCCCCCCCCCCCCP(=O)(O)O | > 100 µM | > 100 µM | – | > 100 µM | > 100 µM | – | – | – | – | – | – | – | > 100 µM | – | – | – | – | – | – | > 100 µM |
| [N-]=[N+]=NCCCn1c2c(c3ccc([N+](=O)[O-])cc3c1=O)C(=O)c1ccccc1-2 | 0.061 µM | > 100 µM | > 100 µM | > 100 µM | 78.2 µM | 43.3 µM | – | – | > 100 µM | 6.04 µM | 14.4 µM | – | – | 5.11 µM | – | – | – | 0.0923 µM | 0.0101 µM | > 100 µM |
| Cc1cc(Cl)ccc1OCC(=O)Nc1nc2c(Cl)cccc2s1 | 29.4 µM | > 100 µM | > 100 µM | 42 µM | – | > 100 µM | 15.9 µM | > 100 µM | > 100 µM | 18.7 µM | 16.7 µM | 31.2 µM | 72 µM | > 100 µM | > 100 µM | – | – | – | 5.63 µM | > 100 µM |
| O=c1[nH]c2ccccc2cc1-c1nc2ccc(Cl)cc2[nH]1 | > 100 µM | > 100 µM | 6.78 µM | > 100 µM | – | > 100 µM | 6.51 µM | – | 2.86 µM | 1.42 µM | 5.15 µM | 29.8 µM | > 100 µM | 1.02 µM | – | – | – | – | 3.24 µM | 10.4 µM |
| N#C/C(=C/c1cccc(Oc2ccccc2)c1)c1ccccc1 | > 100 µM | > 100 µM | > 100 µM | > 100 µM | – | > 100 µM | – | – | – | – | – | – | – | – | – | – | > 100 µM | – | – | > 100 µM |
| COc1cc(Nc2ncccc2C(=O)Nc2nc3ccc(F)cc3s2)cc(OC)c1OC | > 100 µM | > 100 µM | – | > 100 µM | – | > 100 µM | 3.62 µM | – | 3.08 µM | – | 3.11 µM | 3.49 µM | > 100 µM | 3.15 µM | – | 2.97 µM | > 100 µM | – | – | – |
| CCC1=CCN(c2cc(C)ccn2)OC1c1ccc(OC)cc1 (stereo not given) | > 100 µM | > 100 µM | 62.6 µM | > 100 µM | 58.1 µM | > 100 µM | – | – | – | – | – | – | > 100 µM | – | – | – | 68.5 µM | – | – | 50.6 µM |
| COc1ccc2c(c1)C(=O)/C(=C/c1cccc(OCC(=O)c3ccccc3)c1)O2 | 31.4 µM | – | – | 24.9 µM | 8.01 µM | 11.5 µM | 16.4 µM | 48.1 µM | – | – | 4.93 µM | 15 µM | 29 µM | 3.16 µM | 13.8 µM | 1.47 µM | 3.26 µM | 3.26 µM | 1.39 µM | 3.23 µM |
| COc1ccc([C@@]2(O)c3c(ccc(O)c3OC)[C@H]2OC)c(OC)c1 | > 100 µM | > 100 µM | > 100 µM | > 100 µM | – | > 100 µM | – | – | – | – | – | – | > 100 µM | – | – | – | > 100 µM | – | – | > 100 µM |
| Cc1ccc(S(=O)(=O)N=Nc2c(O)[nH]c3cc(O)c(C(=O)O)cc23)cc1 | > 100 µM | > 100 µM | > 100 µM | > 100 µM | > 100 µM | > 100 µM | – | > 100 µM | – | – | – | – | > 100 µM | – | – | – | > 100 µM | – | – | – |
| CSC(SC)(C(=O)O)c1cc(-c2c(Cl)cccc2Cl)no1 | > 100 µM | > 100 µM | 50.4 µM | > 100 µM | – | > 100 µM | – | > 100 µM | – | – | – | – | > 100 µM | – | – | – | > 100 µM | – | – | – |
| COc1ccc(C=O)cc1O[Si](C)(C)C(C)(C)C | > 100 µM | > 100 µM | > 100 µM | > 100 µM | > 100 µM | > 100 µM | – | – | – | – | – | – | > 100 µM | – | – | – | – | – | – | > 100 µM |
| O=C(O)CCCc1ccc2ccc3ccccc3c2c1 | > 100 µM | > 100 µM | > 100 µM | > 100 µM | > 100 µM | > 100 µM | – | > 100 µM | – | – | – | – | > 100 µM | – | – | – | > 100 µM | – | – | – |
| COc1ccc2nc3cc(Cl)ccc3c(Sc3ccc([N+](=O)[O-])cc3C)c2c1 | > 100 µM | > 100 µM | – | > 100 µM | > 100 µM | > 100 µM | – | – | – | – | – | – | > 100 µM | – | – | – | > 100 µM | – | – | – |
| O=C(Nc1ccc(C(F)(F)F)cc1[N+](=O)[O-])C(=O)C1NC(=S)NC1=O (stereo not given) | > 100 µM | > 100 µM | > 100 µM | > 100 µM | > 100 µM | > 100 µM | – | – | – | – | – | – | > 100 µM | – | – | – | > 100 µM | – | – | > 100 µM |
